# Laboratory results from paper PMC3460867, “MmPPOX Inhibits Mycobacterium tuberculosis Lipolytic Enzymes Belonging to the Hormone-Sensitive Lipase Family and Alters Mycobacterial Growth” (PLoS ONE, 2012).
# Where two headings read alike, the source gives them in different places.
# Legend:
# [1] = test system: M. bovis BCG strain Pasteur 1173P2; test: microbe, parasite or virus in culture; format: cell-based; conditions: Mycobacterium tuberculosis variant bovis BCG
# LipR = format: biochemical; conditions: pNPC4
# LipC = LipC (Mycobacterium tuberculosis, UniProt P96402); test: biochemical; format: biochemical; conditions: for x I50: inhibitor molar excess leading to 50% residual activity after 10 min incubation; for Residual activity (%) 10 min: 10 min incubation; for Residual activity (%) 30 min: 30 min incubation
# Lip-HSL enzymes = test: Inhibition of all Lip-HSL enzymes tested, pre-incubation method, residual activity on pNPC4 (statements for the family); format: biochemical
# LipY = target: T1, LipY (Mycobacterium tuberculosis, UniProt I6Y2J4); test: biochemical; format: biochemical, M. tuberculosis; conditions: for Ki: Apparent K i
# T1 sequence (I6Y2J4 1-437): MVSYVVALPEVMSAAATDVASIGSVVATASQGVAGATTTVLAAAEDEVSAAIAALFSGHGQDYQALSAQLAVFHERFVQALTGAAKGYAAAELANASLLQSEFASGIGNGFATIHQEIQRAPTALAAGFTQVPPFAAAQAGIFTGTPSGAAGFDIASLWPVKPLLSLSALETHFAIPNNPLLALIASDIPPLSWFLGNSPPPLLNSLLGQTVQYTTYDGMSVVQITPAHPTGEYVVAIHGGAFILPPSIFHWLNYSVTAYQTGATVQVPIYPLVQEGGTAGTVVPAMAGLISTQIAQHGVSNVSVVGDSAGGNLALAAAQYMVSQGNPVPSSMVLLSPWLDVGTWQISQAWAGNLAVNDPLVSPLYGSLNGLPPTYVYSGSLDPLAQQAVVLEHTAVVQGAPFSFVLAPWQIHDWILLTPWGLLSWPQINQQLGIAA
# LipI = LipI (Mycobacterium tuberculosis, UniProt P71668); test: biochemical; format: biochemical; conditions: for x I50: inhibitor molar excess leading to 50% residual activity after 10 min incubation; for Residual activity (%) 10 min: 10 min incubation; for Residual activity (%) 30 min: 30 min incubation
# LipU = LipU (Mycobacterium tuberculosis, UniProt O53424); test: biochemical; format: biochemical; conditions: for x I50: inhibitor molar excess leading to 50% residual activity after 10 min incubation
# LipH = format: biochemical; conditions: pNPC4
# [2] = test system: M. tuberculosis strain mc^27000; test: microbe, parasite or virus in culture; format: cell-based; conditions: Mycobacterium tuberculosis
# Cut6 = Cut6 (Mycobacterium tuberculosis, UniProt O53581); test: biochemical; format: biochemical; conditions: for x I50: inhibitor molar excess leading to 50% residual activity after 10 min incubation
# LipF = format: biochemical; conditions: for Residual activity (%) 10 min / Residual activity (%) 30 min: pNPC4
# LipN = test: Inhibition of recombinant LipN, pre-incubation method, residual activity on pNPC4; format: biochemical, M. tuberculosis; conditions: for Residual activity (%) 10 min / Residual activity (%) 30 min: pNPC4
# LipW = format: biochemical; conditions: pNPC4
# [3] = LipC, near stoichiometric proportions of inhibitor (x I<2)
# [4] = LipI, near stoichiometric proportions of inhibitor (x I<2)
# [5] = near stoichiometric proportions of inhibitor (x I<2)
# LipI, sequence (P71668 whole entry): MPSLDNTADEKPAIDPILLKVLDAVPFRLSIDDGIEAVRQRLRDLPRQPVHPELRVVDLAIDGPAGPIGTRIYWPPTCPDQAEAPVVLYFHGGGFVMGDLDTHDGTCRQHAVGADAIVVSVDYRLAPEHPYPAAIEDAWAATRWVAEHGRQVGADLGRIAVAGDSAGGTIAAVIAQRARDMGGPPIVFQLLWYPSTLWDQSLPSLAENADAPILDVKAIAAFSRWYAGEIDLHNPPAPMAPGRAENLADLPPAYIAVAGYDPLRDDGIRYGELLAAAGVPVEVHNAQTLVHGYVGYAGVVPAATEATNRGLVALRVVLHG
# Cut6, sequence (O53581 44-336): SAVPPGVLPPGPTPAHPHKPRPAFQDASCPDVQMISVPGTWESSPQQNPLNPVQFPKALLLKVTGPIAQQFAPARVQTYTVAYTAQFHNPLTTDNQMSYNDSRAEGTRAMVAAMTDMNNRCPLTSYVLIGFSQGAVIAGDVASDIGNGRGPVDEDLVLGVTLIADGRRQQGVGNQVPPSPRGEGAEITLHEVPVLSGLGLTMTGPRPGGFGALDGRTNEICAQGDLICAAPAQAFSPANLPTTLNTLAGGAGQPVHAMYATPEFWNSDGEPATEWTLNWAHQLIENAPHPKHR
# LipU, sequence (O53424 whole entry): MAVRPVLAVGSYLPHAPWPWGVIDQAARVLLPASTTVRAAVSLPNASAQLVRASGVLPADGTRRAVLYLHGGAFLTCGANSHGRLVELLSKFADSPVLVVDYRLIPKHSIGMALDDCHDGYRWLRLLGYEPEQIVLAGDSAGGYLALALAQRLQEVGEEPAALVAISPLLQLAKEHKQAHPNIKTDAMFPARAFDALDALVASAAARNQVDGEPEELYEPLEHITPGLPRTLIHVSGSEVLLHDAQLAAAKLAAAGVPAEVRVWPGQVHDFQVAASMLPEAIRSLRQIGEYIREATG
# LipC, sequence (P96402 whole entry): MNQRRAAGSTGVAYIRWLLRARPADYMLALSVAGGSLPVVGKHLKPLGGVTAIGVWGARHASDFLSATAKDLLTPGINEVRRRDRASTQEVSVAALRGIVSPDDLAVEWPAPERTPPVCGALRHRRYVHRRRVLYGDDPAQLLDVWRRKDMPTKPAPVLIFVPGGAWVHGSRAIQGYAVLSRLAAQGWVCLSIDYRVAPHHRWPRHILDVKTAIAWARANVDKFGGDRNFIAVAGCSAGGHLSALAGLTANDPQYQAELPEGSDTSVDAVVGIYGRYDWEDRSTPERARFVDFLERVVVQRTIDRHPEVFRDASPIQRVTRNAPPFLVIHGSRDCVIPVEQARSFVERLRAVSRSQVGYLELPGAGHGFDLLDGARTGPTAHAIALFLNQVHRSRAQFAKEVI
compound,measurement,setting,value
"COc1nn(-c2cccc(Oc3ccccc3)c2)c(=O)o1 [MmPPOX, 5-methoxy-N-3-(meta-phenoxyphenyl)-1,3,4-oxadiazol-2(3H)-one]",MIC,[1],10 to 20 µg/mL
same,Residual activity (%) 10 min,"LipR; x I = 20, 10 min incubation",7%
same,Residual activity (%) 30 min,"LipR; x I = 20, 30 min incubation",15%
same,Ki,LipC,1 µM
same,x I50 ratio,"LipC; LipC, calculated as x I50 (THL)/x I50 (MmPPOX)",>10^3
same,x I50,"LipC; LipC, pNPC4",0.5
same,Half inactivation time (t1/2),LipC; [3],< 1 min
same,Remaining activities,LipC; [3],< 10%
same,Residual activity (%) 10 min,"LipC; LipC, x I = 2, pNPC4",7%
same,Residual activity (%) 30 min,"LipC; LipC, x I = 2, pNPC4",5%
same,Residual activity (%) 10 min,"LipC; LipC, x I = 5, pNPC4",0%
same,Residual activity (%) 30 min,"LipC; LipC, x I = 5, pNPC4",0%
same,Activity restoration: increase of residual activity after 30 min as compared to 10 min,"Lip-HSL enzymes; LipF, LipR, LipU and LipW",4–8%
same,Half inactivation time (t1/2),"Lip-HSL enzymes; all Lip-HSL enzymes tested, x I = 20",< 1 min
same,Remaining activities,"Lip-HSL enzymes; all Lip-HSL enzymes tested, x I = 20, 10 min incubation, pNPC4",less than 15%
same,Residual activity (%) 10 min,LipY,5%
same,Residual activity (%) 30 min,LipY,5%
same,x I50 ratio,LipY,0.4
same,Ki,LipY,7.7 µM
same,Ki,LipI,0.1 µM
same,x I50 ratio,"LipI; LipI, calculated as x I50 (THL)/x I50 (MmPPOX)",131.8
same,x I50,"LipI; LipI, pNPC4",0.5
same,Half inactivation time (t1/2),LipI; [4],< 1 min
same,Remaining activities,LipI; [4],< 10%
same,Residual activity (%) 10 min,"LipI; LipI, x I = 1, pNPC4",7%
same,Residual activity (%) 30 min,"LipI; LipI, x I = 1, pNPC4",6%
same,Residual activity (%) 10 min,"LipI; LipI, x I = 2, pNPC4",0%
same,Residual activity (%) 30 min,"LipI; LipI, x I = 2, pNPC4",0%
same,Ki,"LipU; Apparent K i, pNPC4",5.1 µM
same,x I50 ratio,LipU; calculated as x I50 (THL)/x I50 (MmPPOX),>333
same,x I50,LipU; pNPC4,1.5
same,Residual activity (%) 10 min,"LipU; x I = 20, 10 min incubation, pNPC4",10%
same,Residual activity (%) 30 min,"LipU; x I = 20, 30 min incubation, pNPC4",17%
same,Residual activity (%) 10 min,"LipH; x I = 5, 10 min incubation",9%
same,Residual activity (%) 30 min,"LipH; x I = 5, 30 min incubation",9%
same,Residual activity (%) 10 min,"LipH; x I = 10, 10 min incubation",0%
same,Residual activity (%) 30 min,"LipH; x I = 10, 30 min incubation",0%
same,MIC,[2],~25 µg/mL
same,Ki,"Cut6; Apparent K i, Cut6, pNPC4",> 1000 µM
same,Ki,"Cut6; Apparent K i, Cut6, pNPC4, value of the text",6400 µM
same,x I50 ratio,"Cut6; Cut6, calculated as x I50 (THL)/x I50 (MmPPOX)",<0.1
same,x I50,"Cut6; Cut6, pNPC4",227.9
same,Activity in the presence of inhibitor,"Cut6; Cut6, x I = 20",retained full activity
same,Residual activity (%) 10 min,"Cut6; Cut6, x I = 20, 10 min incubation, pNPC4",100%
same,Residual activity (%) 30 min,"Cut6; Cut6, x I = 20, 30 min incubation, pNPC4",100%
same,Apparent K i for Cut6 relative to those of Lip-HSL proteins (times higher),Cut6; Cut6 vs Lip-HSL proteins,about 1000
same,Half inactivation time (t1/2),LipF; [5],< 1 min
same,Remaining activities,LipF; [5],< 10%
same,Residual activity (%) 10 min,"LipF; x I = 1, 10 min incubation",7%
same,Residual activity (%) 30 min,"LipF; x I = 1, 30 min incubation",11%
same,Residual activity (%) 10 min,"LipF; x I = 2, 10 min incubation",0%
same,Residual activity (%) 30 min,"LipF; x I = 2, 30 min incubation",0%
same,Half inactivation time (t1/2),LipN; [5],< 1 min
same,Remaining activities,LipN; [5],< 10%
same,Residual activity (%) 10 min,"LipN; x I = 2, 10 min incubation",6%
same,Residual activity (%) 30 min,"LipN; x I = 2, 30 min incubation",6%
same,Residual activity (%) 10 min,"LipN; x I = 5, 10 min incubation",0%
same,Residual activity (%) 30 min,"LipN; x I = 5, 30 min incubation",0%
same,Residual activity (%) 10 min,"LipW; x I = 20, 10 min incubation",6%
same,Residual activity (%) 30 min,"LipW; x I = 20, 30 min incubation",13%
"CCCCCCCCCCC[C@@H](C[C@@H]1OC(=O)[C@H]1CCCCCC)OC(=O)[C@H](CC(C)C)NC=O [THL, Tetrahydrolipstatin]",MIC,[1],7.5 µg/mL
same,x I50,"LipC; LipC, pNPC4",>500
same,Ki,"LipC; LipC, pNPC4, read-out: Apparent K i",> 1000 µM
same,Ki,LipY,3.2 µM
same,x I50,"LipI; LipI, pNPC4",65.9
same,Ki,"LipI; LipI, pNPC4, read-out: Apparent K i",13.1 µM
same,x I50,LipU; pNPC4,>500
same,Ki,"LipU; pNPC4, read-out: Apparent K i",> 1000 µM
same,MIC,[2],20 µg/mL
same,x I50,"Cut6; Cut6, pNPC4",9.7
same,Ki,"Cut6; Cut6, pNPC4, read-out: Apparent K i",142 µM
